The source of these data is patent US20250057845A1, “COMBINATION OF A TASK1/3 CHANNEL BLOCKER WITH A P2X3 RECEPTOR ANTAGONIST FOR THE TREATMENT OF SLEEP APNEA” (BAYER AKTIENGESELLSCHAFT, priority 2020, published 2025).

The subject of data set [1] is upper airway collapsibility in anaesthetized, spontaneously breathing pigs. The experiment in a line: pig model of obstructive sleep apnea (OSA): upper airway collapsibility under negative pressure. It is filed as in vivo, German Landrace pigs. The source says: The therapeutic potential of the combination of a TASK1/3 channel blocker with a P2X3 receptor antagonist according to the present invention in sleep apnea can be assessed preclinically in a pig model of obstructive sleep apnea (OSA).
Using negative pressure, it is possible to induce collapse and thus obstruction of the upper respiratory tract in anaesthetized, spontaneously breathing pigs (Wirth K. J. et al., Sleep 36(5) (2013) pp. 699-708).
German Landrace pigs are used for the model. The pigs are anaesthetized and tracheotomized. Two tracheal cannulas are inserted into the trachea, one into the rostral part and the other into the caudal part of the trachea. Using a connection piece, the rostral cannula is connected to a tube to the negative pressure device and to the distal tracheal cannula. The distal tracheal cannula is additionally connected to a tube with an open end to atmosphere via a connection piece that served for free tracheal breathing, circumventing the upper airway. By appropriate opening and clamping of those tubes breathing can be switched from nasal breathing to breathing through the caudal tracheal cannula, circumventing the upper airway, and the (isolated) upper airway can be connected to the negative pressure device, causing airflow in the inspiratory direction.
At certain points in time, the collapsibility of the upper respiratory tract is tested by having the pig breathe via the caudal cannula and applying negative pressures of −50, −100 and −150 cm water head (cm H2O) to the upper respiratory tract. This causes the upper respiratory tract to collapse, which manifests itself in an interruption of the airflow and a pressure drop in the tube system. This test is conducted prior to the administration of the test substance and at certain intervals after the administration of the test substance. An appropriately effective test substance can prevent this collapse of the respiratory tract in the inspiratory phase.

A short description of data set [2]: free plasma concentrations of Gefapixant in the OSA pig model (FIG. 4). The data set is classed as in vivo, German Landrace pigs. The following applies: pigs, minimal effective dose of Gefapixant (iv bolus 0.3 mg/kg then infusion 0.1 mg/kg/h).
The mark [3] stands for this setting: 0.3 μg intranasal given at 0 min, time 0 min.
[4] abbreviates: 0.3 μg intranasal given at 0 min, time 10 min.
The mark [5] stands for this setting: 0.3 μg intranasal given at 0 min, time 30 min.
Where [6] appears, read: 0.3 μg intranasal given at 0 min, time 60 min.
The mark [7] stands for this setting: 0.3 μg intranasal given at 0 min, time 90 min.
[8] abbreviates: Gefapixant iv bolus 0.3 mg/kg then iv infusion 0.1 mg/kg/h for four hours, given at 0 min, time 0 min.
The mark [9] stands for this setting: Gefapixant iv bolus 0.3 mg/kg then iv infusion 0.1 mg/kg/h for four hours, given at 0 min, time 10 min.
[10] abbreviates: Gefapixant iv bolus 0.3 mg/kg then iv infusion 0.1 mg/kg/h for four hours, given at 0 min, time 30 min.
The mark [11] stands for this setting: Gefapixant iv bolus 0.3 mg/kg then iv infusion 0.1 mg/kg/h for four hours, given at 0 min, time 60 min.
Where [12] appears, read: Gefapixant iv bolus 0.3 mg/kg then iv infusion 0.1 mg/kg/h for four hours, given at 0 min, time 120 min.
Setting [13] is: Gefapixant iv bolus 0.3 mg/kg then iv infusion 0.1 mg/kg/h for four hours, given at 0 min, time 180 min.
[14] abbreviates: Gefapixant iv bolus 0.3 mg/kg then iv infusion 0.1 mg/kg/h for four hours, given at 0 min, time 240 min.
The mark [15] stands for this setting: Gefapixant iv bolus 0.3 mg/kg then iv infusion 0.1 mg/kg/h for four hours, given at 0 min, time 300 min.

`COc1ccc(Cl)c(C(=O)N2C3CCC2CN(Cc2c(-c4ccc(C(C)C)cc4)nc4ncccn24)C3)n1` [(3-chloro-6-methoxypyridin-2-yl)(3-{[2-(4-isopropylphenyl)imidazo[1,2-a]pyrimidin-3-yl]methyl}-3,8-diazabicyclo[3.2.1]oct-8-yl)methanone]: the “effectiveness of the dose on upper airway collapsibility” value in data set [1] (0.3 μg intranasal) is recorded as “non effective dose”. Besides, the “Percent pigs without collaps −50 cm H2O, %” value in data set [1] (setting [3]) is 0%; in data set [1] (setting [4]) it was 33%; in data set [1] (setting [5]), 0%; in data set [1] (setting [6]), 0%; in data set [1] (setting [7]), 0%. Besides, the “Percent pigs without collaps −100 cm H2O, %” value in data set [1] (setting [3]) worked out at 0%; in data set [1] (setting [4]) it was 33%; in data set [1] (setting [5]), 0%; in data set [1] (setting [6]) it was 0%; in data set [1] (setting [7]) it was 0%. In addition, the “Percent pigs without collaps −150 cm H2O, %” value in data set [1] (setting [3]), in data set [1] (setting [4]), in data set [1] (setting [5]), in data set [1] (setting [6]) and in data set [1] (setting [7]) was 0% in each case.

For `COc1cc(C(C)C)c(Oc2cnc(N)nc2N)cc1S(N)(=O)=O` [Gefapixant], the “Percent pigs without collaps −50 cm H2O, %” value in data set [1] (setting [8]) came to 0%; in data set [1] (setting [9]), 0%; in data set [1] (setting [10]) it was 100%; in data set [1] (setting [11]) it was 100%; in data set [1] (setting [12]), 0%; in data set [1] (setting [13]) it was 0%. Also, the “Percent pigs without collaps −50 cm H2O, %” value in data set [1] (setting [14]) and in data set [1] (setting [15]) was 0% each time. Also, the “Percent pigs without collaps −100 cm H2O, %” value in data set [1] (setting [8]) is given as 0%; in data set [1] (setting [9]), 0%; in data set [1] (setting [10]), 100%; in data set [1] (setting [11]), 0%; in data set [1] (setting [12]), 0%; in data set [1] (setting [13]), 0%. The “Percent pigs without collaps −100 cm H2O, %” value in data set [1] (setting [14]) and in data set [1] (setting [15]) was 0% throughout. Further, the “Percent pigs without collaps −150 cm H2O, %” value in data set [1] (setting [8]) is reported as 0%; in data set [1] (setting [9]), 0%; in data set [1] (setting [10]), 100%; in data set [1] (setting [11]) it was 0%; in data set [1] (setting [12]), 0%; in data set [1] (setting [13]), 0%. In addition, the “Percent pigs without collaps −150 cm H2O, %” value in data set [1] (setting [14]) and in data set [1] (setting [15]) was 0% each time. Further, the “effectiveness of the dose on upper airway collapsibility” value in data set [1] (iv bolus 0.3 mg/kg then iv infusion 0.1 mg/kg/h for four hours) is on record as “minimal effective dose”. The “only time point after intravenous application at which upper airway collapsibility was inhibited at all three negative pressures in all pigs” value in data set [1] (iv bolus 0.3 mg/kg then iv infusion 0.1 mg/kg/h for four hours, −50, −100 and −150 cm H2O) is 30 min. In data set [2], the free plasma concentrations entry is listed as “about 100 nM”.
